Laboratory results published in PMC4212090, “The comprehensive analysis of DEG/ENaC subunits in Hydra reveals a large variety of peptide-gated channels, potentially involved in neuromuscular transmission” (BMC Biology, 2014).
Values joined by “and” are separate entries in the source; they are usually repeats but may differ in a detail not shown here. Identical values can stand only once. “Also recorded” adds a separate entry of the source. Like-named read-outs stand apart in the source and are kept apart here.

What was measured:
HyNaC2/3/7 [1] = biological target: T1, HyNaC2/3/7 (Hydra vulgaris (Hydra magnipapillata), UniProt A0A0A0MP73+A8DZR6+A8DZR7); assay: Activation of HyNaC2/3/7 expressed in Xenopus oocytes by Hydra-RFamides (TEVC); type: cell-based
Procedure: (§1) To study the biophysical properties of the new HyNaCs, cRNA of HyNaCs was synthesized in vitro (mMessage mMachine kit, Ambion, Austin, Texas, USA) and injected into Xenopus laevis oocytes of stage V and VI. After injection, oocytes were incubated for one to two days at 19°C in oocyte Ringer’s solution 2 (OR-2), which contained (in mM): 82.5 NaCl, 2.5 KCl, 1.0 Na2HPO4, 1.0 MgCl2, 1.0 CaCl2, 5.0 HEPES, 0.5 g/l PVP, 1,000 U/l penicillin and 10 mg/l streptomycin, NaOH was used to adjust pH to 7.3. Whole cell currents were recorded from defolliculated oocytes by two-electrode voltage-clamp (TEVC) using the amplifier TurboTec 03X (npi electronic GmbH, Tamm, Germany). Standard bath solution (in mM: 140 NaCl, 10 HEPES, 1.8 CaCl2 and 1.0 MgCl2. NaOH was used to adjust pH to 7.4.) was exchanged by a pump driven system combined with the oocyte testing carousel (OTC), which was controlled by the interface OTC-20 [53]. To control the OTC-20 and to record the data to the hard drive, the software CellWorks (version 5.1.1; npi electronic GmbH, Tamm, Germany) was used. Data were sampled at 0.1 to 1 kHz and filtered at 20 Hz. HyNaCs are permeable for Ca^2+, activating an endogenous CaCC [40]. Therefore, unless otherwise indicated, oocytes were injected with 50 nl of 20 mM EGTA 30 to 180 minutes before measurements. Reversal potentials and Ca^2+ permeabilities of HyNaCs were studied as described previously.
(§2) EC50 values for Hydra-RFamides I and II as well as IC50 values for diminazene were determined by fits to the Hill equation using IGOR Pro (version 6.06, WaveMetrics, Inc.). Reversal potentials were defined as the first recorded data point, where currents reversed signs from negative to positive. For I/V relationships, voltage ramps in the absence of the agonist were used to subtract background conductances. Results are reported as mean ± standard error.

HyNaC2/3/5 [2] = biological target: T2, HyNaC2/3/5 (Hydra vulgaris (Hydra magnipapillata), UniProt A8DZR6+A8DZR7+D3UD58); assay: Activation of HyNaC2/3/5 expressed in Xenopus oocytes by Hydra-RFamides (TEVC); type: cell-based
Procedure: as §1, §2

HyNaC2/3/5 [3] = biological target: T2, HyNaC2/3/5; parameters: method as in PMID 20159980; conditions: for comparison, ref [4], read-out: EC50 for Hydra-RFamide I; cited from earlier work
[4] = test system: functional HyNaC heterotrimer; assay: Screen of functional HyNaC heterotrimers in Xenopus oocytes for activation by Hydra-RFamides; type: cell-based, Hydra magnipapillata; conditions: 5 μM peptide; Xenopus oocytes
Procedure: We tested the function of the new HyNaCs by co-expression of different HyNaC subunit combinations in Xenopus oocytes. We screened for functional subunit combinations by application of 5 μM Hydra-RFamide I, a potent agonist of HyNaC2/3/5 [4]. When we expressed an individual HyNaC subunit we could never elicit currents. […] When HyNaC2 was part of the injected cRNA pool, however, Hydra-RFamide I elicited currents. Simultaneous expression of HyNaC2 with a single other HyNaC resulted only in a functional channel when we co-expressed HyNaC2 and HyNaC3; it was already known that HyNaC2 and HyNaC3 form a low-affinity peptide-gated channel.
Dashed line represents the zero current level. Amino acid sequences of Hydra-RFamides I to V are shown at the bottom. HyNaC, Hydra Na^+ channel.
Since Hydra-RFamide II had been shown previously to activate HyNaC2/3/5 [4], we tested Hydra-RFamides II to V for channel activation.
as §1

HyNaC2/10/7 [5] = biological target: T3, HyNaC2/10/7 (Hydra vulgaris (Hydra magnipapillata), UniProt A0A0A0MP61+A0A0A0MP73+A8DZR6); assay: Activation of HyNaC2/10/7 expressed in Xenopus oocytes by Hydra-RFamides (TEVC); type: cell-based; conditions: EGTA-injected oocytes, saturating ligand concentration not reached
Procedure: as §1, §2

[6] = test system: HyNaCs containing HyNaC12; assay: Activation of HyNaC12-containing subunit combinations in Xenopus oocytes by Hydra-RFamides; type: cell-based, Hydra magnipapillata; conditions: HyNaC12 co-expressed with HyNaC2 and other HyNaCs or pools; 5 μM peptide
Procedure: The contribution of the distantly related HyNaC12 to peptide-gated channels was assessed by co-expression with HyNaC2 and one or several other HyNaCs (HyNaC3 to HyNaC11). In addition, HyNaC12 was co-expressed with pools of different HyNaCs without HyNaC2. […] In fact, all HyNaCs that were activated by Hydra-RFamide I were opened by lowering the extracellular Ca^2+ concentration ([Ca^2+]e) to 10 nM (Figure 4). […] Some DEG/ENaCs are constitutively opened by an amino acid substitution at the so-called DEG-position. To further investigate whether HyNaC12 forms a functional homomeric channel, we substituted a glycine at the DEG-position by threonine (G436T), which has a large side chain. This substitution did, however, not constitutively open HyNaC12 (data not shown). This applies also for the co-expression of HyNaC12-G436T together with pools of different wild-type HyNaC subunits, leaving the function of HyNaC12 unknown. […]
(§3) To study the biophysical properties of the new HyNaCs, cRNA of HyNaCs was synthesized in vitro (mMessage mMachine kit, Ambion, Austin, Texas, USA) and injected into Xenopus laevis oocytes of stage V and VI. […] Whole cell currents were recorded from defolliculated oocytes by two-electrode voltage-clamp (TEVC) using the amplifier TurboTec 03X (npi electronic GmbH, Tamm, Germany). […]

HyNaC2/4/6 [7] = biological target: T4, HyNaC2/4/6 (Hydra vulgaris (Hydra magnipapillata), UniProt A0A0A0MP54+A8DZR6+A8DZR8); assay: Activation of HyNaC2/4/6 expressed in Xenopus oocytes by Hydra-RFamides (TEVC); type: cell-based
Procedure: as §1, §2

HyNaC2/11/5 [8] = biological target: T5, HyNaC2/11/5 (Hydra vulgaris (Hydra magnipapillata), UniProt A0A0A0MP55+A8DZR6+D3UD58); assay: Activation of HyNaC2/11/5 expressed in Xenopus oocytes by Hydra-RFamides (TEVC); type: cell-based
Procedure: as §1, §2

HyNaC2/3/6 [9] = biological target: T6, HyNaC2/3/6 (Hydra vulgaris (Hydra magnipapillata), UniProt A0A0A0MP54+A8DZR6+A8DZR7); assay: Activation of HyNaC2/3/6 expressed in Xenopus oocytes by Hydra-RFamides (TEVC); type: cell-based
Procedure: as §1, §2

HyNaC2/9/7 [10] = biological target: T7, HyNaC2/9/7 (Hydra vulgaris (Hydra magnipapillata), UniProt A0A0A0MP48+A0A0A0MP73+A8DZR6); assay: Activation of HyNaC2/9/7 expressed in Xenopus oocytes by Hydra-RFamides (TEVC); type: cell-based
Procedure: as §1, §2

HyNaC2/9/5 = assay: Activation of HyNaC2/9/5 in Xenopus oocytes by Hydra-RFamides; type: cell-based, Hydra magnipapillata; conditions: channel opened by lowering extracellular Ca2+
Procedure: The contribution of the distantly related HyNaC12 to peptide-gated channels was assessed by co-expression with HyNaC2 and one or several other HyNaCs (HyNaC3 to HyNaC11). In addition, HyNaC12 was co-expressed with pools of different HyNaCs without HyNaC2. […] In fact, all HyNaCs that were activated by Hydra-RFamide I were opened by lowering the extracellular Ca^2+ concentration ([Ca^2+]e) to 10 nM (Figure 4). […] Some DEG/ENaCs are constitutively opened by an amino acid substitution at the so-called DEG-position. To further investigate whether HyNaC12 forms a functional homomeric channel, we substituted a glycine at the DEG-position by threonine (G436T), which has a large side chain. This substitution did, however, not constitutively open HyNaC12 (data not shown). This applies also for the co-expression of HyNaC12-G436T together with pools of different wild-type HyNaC subunits, leaving the function of HyNaC12 unknown.
as §3

HyNaC2/10/7 [11] = biological target: T3, HyNaC2/10/7; assay: Inhibition of HyNaC2/10/7 currents in Xenopus oocytes (TEVC); type: cell-based; conditions: read-out: IAmil/I, relative current remaining after block by 100 μM amiloride
Procedure: (§4) One of the hallmarks of DEG/ENaCs is the block by the diuretic amiloride.
(§5) Figure 10 Diminazene is a potent inhibitor of HyNaCs. A) Current trace illustrating the concentration-dependent inhibition of HyNaC2/9/7 by diminazene. Block by 100 μM amiloride was used to compare the affinity for diminazene and amiloride. […] Dashed lines represent the zero current level. B) Concentration-response curves showing the concentration-dependent inhibition of HyNaCs by diminazene. HyNaCs, Hydra Na^+ channels.
as §3
(§6) EC50 values for Hydra-RFamides I and II as well as IC50 values for diminazene were determined by fits to the Hill equation using IGOR Pro (version 6.06, WaveMetrics, Inc.). Reversal potentials were defined as the first recorded data point, where currents reversed signs from negative to positive. […]

Hydra magnipapillata = test system: Hydra magnipapillata; parameters: method as in PMID 20159980; conditions: 100 μM amiloride; ref [4]; cited from earlier work
HyNaC2/3/5 [12] = biological target: T2, HyNaC2/3/5; parameters: method as in PMID 20159980; conditions: ref [4], read-out: IC50 (apparent amiloride affinity); cited from earlier work
HyNaC2/4/6 [13] = biological target: T4, HyNaC2/4/6; assay: Inhibition of HyNaC2/4/6 currents in Xenopus oocytes (TEVC); type: cell-based; conditions: read-out: IAmil/I, relative current remaining after block by 100 μM amiloride
Procedure: as §4, §5, §3, §6

HyNaC2/3/6 [14] = biological target: T6, HyNaC2/3/6; assay: Inhibition of HyNaC2/3/6 currents in Xenopus oocytes (TEVC); type: cell-based; conditions: read-out: IAmil/I, relative current remaining after block by 100 μM amiloride
Procedure: as §4, §5, §3, §6

HyNaC2/3/7 [15] = biological target: T1, HyNaC2/3/7; assay: Inhibition of HyNaC2/3/7 currents in Xenopus oocytes (TEVC); type: cell-based; conditions: read-out: IAmil/I, relative current remaining after block by 100 μM amiloride
Procedure: as §4, §5, §3, §6

HyNaC2/11/5 [16] = biological target: T5, HyNaC2/11/5; assay: Inhibition of HyNaC2/11/5 currents in Xenopus oocytes (TEVC); type: cell-based; conditions: read-out: IAmil/I, relative current remaining after block by 100 μM amiloride
Procedure: as §4, §5, §3, §6

HyNaC2/3/5 [17] = biological target: T2, HyNaC2/3/5; assay: Inhibition of HyNaC2/3/5 currents in Xenopus oocytes (TEVC); type: cell-based; conditions: read-out: IAmil/I, relative current remaining after block by 100 μM amiloride
Procedure: as §4, §5, §3, §6

HyNaC2/9/7 [18] = biological target: T7, HyNaC2/9/7; assay: Inhibition of HyNaC2/9/7 currents in Xenopus oocytes (TEVC); type: cell-based; conditions: read-out: IAmil/I, relative current remaining after block by 100 μM amiloride
Procedure: as §4, §5, §3, §6

[19] = Hydra-RFamide I concentration-response
[20] = EGTA-injected oocytes, read-out: EC50 RFa I

T1 sequence (A8DZR7 entry or part of it): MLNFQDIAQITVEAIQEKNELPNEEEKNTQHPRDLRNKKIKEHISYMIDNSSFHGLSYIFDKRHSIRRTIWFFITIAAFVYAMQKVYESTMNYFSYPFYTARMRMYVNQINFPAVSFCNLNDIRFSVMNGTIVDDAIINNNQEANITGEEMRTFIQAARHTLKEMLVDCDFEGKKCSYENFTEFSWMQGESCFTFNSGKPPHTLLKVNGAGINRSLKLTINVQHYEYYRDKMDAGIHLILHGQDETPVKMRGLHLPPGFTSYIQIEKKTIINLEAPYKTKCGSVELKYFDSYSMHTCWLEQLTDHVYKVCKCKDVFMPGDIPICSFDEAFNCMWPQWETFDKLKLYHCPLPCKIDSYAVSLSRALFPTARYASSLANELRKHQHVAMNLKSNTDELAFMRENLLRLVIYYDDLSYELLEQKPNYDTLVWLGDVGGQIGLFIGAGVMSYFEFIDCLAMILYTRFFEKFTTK
T1 sequence (A0A0A0MP73 entry or part of it): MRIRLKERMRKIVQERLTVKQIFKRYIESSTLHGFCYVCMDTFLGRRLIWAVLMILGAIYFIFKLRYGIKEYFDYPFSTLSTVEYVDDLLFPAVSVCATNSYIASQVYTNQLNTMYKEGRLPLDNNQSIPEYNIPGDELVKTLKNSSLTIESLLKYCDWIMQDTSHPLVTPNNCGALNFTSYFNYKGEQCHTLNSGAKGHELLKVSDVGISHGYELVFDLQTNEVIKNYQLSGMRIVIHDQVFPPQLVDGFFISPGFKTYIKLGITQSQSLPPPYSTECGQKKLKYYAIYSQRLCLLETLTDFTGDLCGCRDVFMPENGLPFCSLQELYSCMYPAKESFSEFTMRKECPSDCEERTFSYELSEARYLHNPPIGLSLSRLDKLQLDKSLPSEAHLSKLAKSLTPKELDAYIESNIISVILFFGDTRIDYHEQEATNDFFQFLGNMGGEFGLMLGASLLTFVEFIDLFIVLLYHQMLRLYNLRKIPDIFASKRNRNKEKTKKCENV
T1 sequence (A8DZR6 entry or part of it): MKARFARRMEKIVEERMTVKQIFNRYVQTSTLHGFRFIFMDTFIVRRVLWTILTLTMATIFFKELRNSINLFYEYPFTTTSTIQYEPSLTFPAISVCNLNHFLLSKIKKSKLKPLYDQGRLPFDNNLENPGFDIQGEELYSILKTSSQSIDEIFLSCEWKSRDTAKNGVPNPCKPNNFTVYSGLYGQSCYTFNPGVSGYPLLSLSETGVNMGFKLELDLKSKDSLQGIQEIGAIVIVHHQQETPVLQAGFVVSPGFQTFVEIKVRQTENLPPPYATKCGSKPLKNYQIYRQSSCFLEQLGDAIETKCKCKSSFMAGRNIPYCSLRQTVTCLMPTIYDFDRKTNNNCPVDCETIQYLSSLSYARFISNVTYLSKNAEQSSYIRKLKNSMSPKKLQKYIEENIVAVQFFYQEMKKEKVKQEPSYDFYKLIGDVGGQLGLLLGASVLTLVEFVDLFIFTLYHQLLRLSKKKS
T7 sequence (A0A0A0MP48 entry or part of it): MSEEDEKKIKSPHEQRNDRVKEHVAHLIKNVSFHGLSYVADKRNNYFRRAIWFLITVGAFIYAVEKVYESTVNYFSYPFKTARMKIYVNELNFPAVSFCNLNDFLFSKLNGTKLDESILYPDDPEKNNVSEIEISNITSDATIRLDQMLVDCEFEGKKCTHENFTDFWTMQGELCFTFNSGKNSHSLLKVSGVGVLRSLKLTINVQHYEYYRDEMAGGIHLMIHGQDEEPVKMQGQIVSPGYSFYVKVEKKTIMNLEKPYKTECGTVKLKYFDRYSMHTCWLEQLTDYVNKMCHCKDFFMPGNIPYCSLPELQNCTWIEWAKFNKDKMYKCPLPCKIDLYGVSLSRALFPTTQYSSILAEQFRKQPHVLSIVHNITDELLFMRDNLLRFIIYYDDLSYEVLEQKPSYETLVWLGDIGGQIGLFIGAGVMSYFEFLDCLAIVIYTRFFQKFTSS
T7 sequence (A8DZR6 entry or part of it): as the sequence (A8DZR6 entry or part of it) above
T7 sequence (A0A0A0MP73 entry or part of it): as the sequence (A0A0A0MP73 entry or part of it) above
T3 sequence (A0A0A0MP61 entry or part of it): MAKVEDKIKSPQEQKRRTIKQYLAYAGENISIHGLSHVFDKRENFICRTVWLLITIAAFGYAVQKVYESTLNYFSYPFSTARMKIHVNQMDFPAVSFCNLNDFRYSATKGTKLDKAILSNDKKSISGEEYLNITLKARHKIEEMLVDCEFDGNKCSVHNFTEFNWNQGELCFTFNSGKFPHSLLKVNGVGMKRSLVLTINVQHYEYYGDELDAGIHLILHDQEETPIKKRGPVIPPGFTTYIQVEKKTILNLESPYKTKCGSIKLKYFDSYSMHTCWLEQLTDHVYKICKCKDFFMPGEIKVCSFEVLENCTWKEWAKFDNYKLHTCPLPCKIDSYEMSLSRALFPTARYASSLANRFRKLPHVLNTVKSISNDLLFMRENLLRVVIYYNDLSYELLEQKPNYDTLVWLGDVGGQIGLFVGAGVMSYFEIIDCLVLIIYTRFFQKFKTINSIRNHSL
T3 sequence (A0A0A0MP73 entry or part of it): as the sequence (A0A0A0MP73 entry or part of it) above
T3 sequence (A8DZR6 entry or part of it): as the sequence (A8DZR6 entry or part of it) above
T5 sequence (A0A0A0MP55 entry or part of it): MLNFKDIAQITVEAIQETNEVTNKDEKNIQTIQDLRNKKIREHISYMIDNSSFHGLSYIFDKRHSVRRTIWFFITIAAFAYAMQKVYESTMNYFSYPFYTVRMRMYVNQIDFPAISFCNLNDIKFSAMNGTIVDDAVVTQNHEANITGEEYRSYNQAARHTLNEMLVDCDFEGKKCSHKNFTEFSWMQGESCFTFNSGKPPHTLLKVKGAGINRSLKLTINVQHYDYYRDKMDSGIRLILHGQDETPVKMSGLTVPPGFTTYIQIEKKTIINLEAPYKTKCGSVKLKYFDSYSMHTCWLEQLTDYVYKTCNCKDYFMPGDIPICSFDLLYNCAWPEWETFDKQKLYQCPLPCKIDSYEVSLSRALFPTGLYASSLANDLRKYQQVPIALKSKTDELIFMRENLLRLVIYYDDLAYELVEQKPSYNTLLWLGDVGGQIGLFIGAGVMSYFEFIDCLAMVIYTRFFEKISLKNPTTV
T5 sequence (A8DZR6 entry or part of it): as the sequence (A8DZR6 entry or part of it) above
T5 sequence (D3UD58 entry or part of it): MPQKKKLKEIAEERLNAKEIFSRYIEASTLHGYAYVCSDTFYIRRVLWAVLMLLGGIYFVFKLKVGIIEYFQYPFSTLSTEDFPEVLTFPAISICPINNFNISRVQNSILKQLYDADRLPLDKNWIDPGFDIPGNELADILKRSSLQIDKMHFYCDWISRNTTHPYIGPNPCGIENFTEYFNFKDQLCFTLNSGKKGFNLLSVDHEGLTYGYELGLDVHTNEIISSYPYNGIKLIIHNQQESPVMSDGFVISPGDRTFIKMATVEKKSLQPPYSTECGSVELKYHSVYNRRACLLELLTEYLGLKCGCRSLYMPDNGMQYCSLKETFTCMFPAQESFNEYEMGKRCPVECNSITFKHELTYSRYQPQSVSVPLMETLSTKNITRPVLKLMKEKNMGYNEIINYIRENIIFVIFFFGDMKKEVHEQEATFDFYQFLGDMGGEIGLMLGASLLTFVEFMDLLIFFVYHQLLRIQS
T6 sequence (A0A0A0MP54 entry or part of it): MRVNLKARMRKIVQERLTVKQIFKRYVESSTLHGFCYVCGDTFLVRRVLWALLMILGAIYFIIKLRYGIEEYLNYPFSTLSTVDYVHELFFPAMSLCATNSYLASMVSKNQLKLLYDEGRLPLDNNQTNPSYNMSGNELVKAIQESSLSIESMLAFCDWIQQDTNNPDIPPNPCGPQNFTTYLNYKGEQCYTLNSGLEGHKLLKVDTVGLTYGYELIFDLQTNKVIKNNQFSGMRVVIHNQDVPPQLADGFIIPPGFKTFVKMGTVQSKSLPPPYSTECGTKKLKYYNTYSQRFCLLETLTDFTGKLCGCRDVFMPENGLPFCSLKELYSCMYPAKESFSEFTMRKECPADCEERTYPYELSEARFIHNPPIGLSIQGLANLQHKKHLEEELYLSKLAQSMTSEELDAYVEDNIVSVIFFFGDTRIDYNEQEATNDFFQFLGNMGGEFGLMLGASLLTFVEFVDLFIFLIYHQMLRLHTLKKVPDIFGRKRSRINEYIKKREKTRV
T6 sequence (A8DZR7 entry or part of it): as the sequence (A8DZR7 entry or part of it) above
T6 sequence (A8DZR6 entry or part of it): as the sequence (A8DZR6 entry or part of it) above
T4 sequence (A8DZR8 entry or part of it): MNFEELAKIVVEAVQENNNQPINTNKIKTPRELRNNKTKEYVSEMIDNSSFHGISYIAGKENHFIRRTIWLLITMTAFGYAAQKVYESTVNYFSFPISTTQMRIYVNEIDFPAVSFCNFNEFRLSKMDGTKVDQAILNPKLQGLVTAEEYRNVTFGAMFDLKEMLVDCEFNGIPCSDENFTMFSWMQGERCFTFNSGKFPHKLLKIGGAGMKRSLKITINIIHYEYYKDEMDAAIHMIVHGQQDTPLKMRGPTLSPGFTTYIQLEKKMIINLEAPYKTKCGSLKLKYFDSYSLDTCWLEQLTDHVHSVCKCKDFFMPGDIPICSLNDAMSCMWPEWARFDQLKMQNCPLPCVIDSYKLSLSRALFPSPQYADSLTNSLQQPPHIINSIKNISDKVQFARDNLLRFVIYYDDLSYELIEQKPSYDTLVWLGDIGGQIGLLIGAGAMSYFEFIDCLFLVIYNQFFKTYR
T4 sequence (A0A0A0MP54 entry or part of it): as the sequence (A0A0A0MP54 entry or part of it) above
T4 sequence (A8DZR6 entry or part of it): as the sequence (A8DZR6 entry or part of it) above
T2 sequence (A8DZR6 entry or part of it): as above
T2 sequence (D3UD58 entry or part of it): as the sequence (D3UD58 entry or part of it) above
T2 sequence (A8DZR7 entry or part of it): as the sequence (A8DZR7 entry or part of it) above

Hydra-RFamide I
EC50 (HyNaC2/3/7 [1]; EGTA-injected oocytes): 0.19 ± 0.04 µM
Imax RFa I, current amplitude at maximal concentration of Hydra-RFamide I (HyNaC2/3/7 [1]; EGTA-injected oocytes): 19.6 ± 1.8 μA and 19.6 ± 1.8 (14) μA
Hill Coeff. (HyNaC2/3/7 [1]; [19]): 1.6 ± 0.4
Imax RFa I, current amplitude at maximal concentration of Hydra-RFamide I (HyNaC2/3/5 [2]; EGTA-injected oocytes): 9.2 ± 1.9 μA and 9.2 ± 1.9 (9) μA
EC50 (HyNaC2/3/5 [2]; [20]): 3.48 ± 0.55 µM
Hill Coeff. (HyNaC2/3/5 [2]; [19]): 1.2 ± 0.1
EC50 (HyNaC2/3/5 [3]): ~5 µM
activation of functional HyNaC heterotrimers (current elicited) [4]: activation of HyNaCs
EC50 (HyNaC2/10/7 [5]): > 30 µM
EC50 RFa I (HyNaC2/10/7 [5]): too low to calculate the EC50 precisely
activation of channels containing HyNaC12 [6]: In no case did this result in channels that could be activated
EC50 (HyNaC2/4/6 [7]; EGTA-injected oocytes): 0.7 ± 0.08 µM
Hill Coeff. (HyNaC2/4/6 [7]; [19]): 1.3 ± 0.1
EC50 (HyNaC2/11/5 [8]; [20]): 13.8 ± 1.9 µM
Hill Coeff. (HyNaC2/11/5 [8]; [19]): 0.9 ± 0.1
EC50 (HyNaC2/3/6 [9]; EGTA-injected oocytes): 0.29 ± 0.06 µM
Imax RFa I, current amplitude at maximal concentration of Hydra-RFamide I (HyNaC2/3/6 [9]; EGTA-injected oocytes): 15.7 ± 3.2 μA and 15.7 ± 3.2 (10) μA
Hill Coeff. (HyNaC2/3/6 [9]; [19]): 1.2 ± 0.2
EC50 (HyNaC2/9/7 [10]; [20]): 0.04 ± 0.01 µM
Hill Coeff. (HyNaC2/9/7 [10]; [19]): 1.5 ± 0.3
activation of HyNaC2/9/5 (HyNaC2/9/5): insensitive; also recorded: not activated

N=C(N)NC(=O)c1nc(Cl)c(N)nc1N [amiloride]
remaining activity at 100 µM (HyNaC2/10/7 [11]): 80 ± 10%
feeding reaction of living Hydra (Hydra magnipapillata): delays the feeding reaction
IC50 (HyNaC2/3/5 [12]): ~120 µM
remaining activity at 100 µM (HyNaC2/4/6 [13]): 30 ± 10%
remaining activity at 100 µM (HyNaC2/3/6 [14]): 30 ± 10%
remaining activity at 100 µM (HyNaC2/3/7 [15]): 30 ± 10%
remaining activity at 100 µM (HyNaC2/11/5 [16]): 70 ± 10%
remaining activity at 100 µM (HyNaC2/3/5 [17]): 50 ± 10%
remaining activity at 100 µM (HyNaC2/9/7 [18]): 30 ± 10%
